Laboratory results published in publication PMC11845477, “Exploring the principles behind antibiotics with limited resistance” (Nature Communications, 2025).
Values joined by “and” are separate entries in the source; they are usually repeats but may differ in a detail not shown here. Identical values can stand only once. Like-named read-outs stand apart in the source and are kept apart here. Where a SMILES comes first, the peptide text is derived from it. Bridges are numbered along the chain shown (N, C = ends). [ ]: non-standard residue; d: D form. The star is where a group is joined. X2 = CC[C@H](C)CCCCC(=O)*; Dab = NCC[C@H](N)C(=O)O

What was measured:
[1] = system: A. baumannii; experiment: Bacterial survival at 10xMIC for 4 hours; assay type: cell-based, Acinetobacter baumannii; conditions: for Survival rate (log10): Acinetobacter baumannii, survival at 10xMIC for 4 hours, single replicates, (fig 9a source data)
Experimental: (§1) We employed image analysis to quantify bacterial survival under fixed antibiotic concentrations (10xMIC for 4 hours) on E. coli, A. baumannii, K. pneumoniae, and P. aeruginosa. […] Survival rate was quantified by calculating the ratio of the viable cells after antibiotic treatment and the total initial viable cell count.
(§2) Fig. 9 Killing kinetics of the studied antibiotics. a Bacterial survival rate in response to toxic antibiotic exposure. […] The bars indicate the survival rate (log10) compared to the untreated initial viable cell count (see “Methods”). Data are presented as mean values of 5 biological replicates ± SEM. The antibiotic group differentiation is denoted by color. […] Survival was estimated by measuring cell viability (colony-forming units/ml) of 2 biologically independent strains following a 4-hour exposure to different concentrations of 16 antibiotics on E. coli ATCC25922 (for further details, see “Methods”). The antibiotic concentration that kills 99.9% of the E. coli population is indicated as a vertical dotted line (see Supplementary Data 5). Error bars represent standard error calculated from the colony counts by Poisson’s model. A Hill function was fitted to the dose-response data from two biological replicates, producing sigmoidal curves (Supplementary Data 5). The Hill coefficient reflects how steeply the survival rate decreases in response to increasing antibiotic concentration ([…]). […] X-axis label colors indicate mode of action groups. For detailed information on antibiotic and bacterial species, see Supplementary Data 1. Source data are provided as a Source Data file.
(§3) In this current study, the killing kinetics of each antibiotic was measured according to a previously established experimental protocol[62] with minor modifications. During this assay, the bacterial cultures were exposed to antibiotics in 96-well assay plates and their viability after 4 hours of exposure was quantified by two methods: i) microplating and colony counting or ii) fluorescent staining of cells and counting of the fluorescent units.
(§4) Specifically, these experiments were performed in the following steps: (1) Preparation of bacterial stocks. Single colonies from each strain were isolated and grown overnight in MHB medium at 37 °C, 160 rpm. In case of the fluorescently tagged E. coli strains, the medium was supplemented with 10 μg/mL chloramphenicol, to maintain the pZS2R plasmid. Overnight cultures were diluted 1:5000 and grown to an optical density at 600 nm (OD600) of 0.25. These cultures were concentrated by centrifugation and small aliquots of 50 μL containing ~2.2 × 10^9 cells were frozen in glycerol (stored at −80 °C). (2) Preparing assay plates with antibiotics. 96-well plates were filled with 235 μL MHB and supplemented with antibiotics using an automated digital dispenser (D300e, Tecan). In the case of SCH79797, we used minimal media. […] For testing the clearance efficacy of each antibiotic at a single lethal dose, the 10x of the MIC for each antibiotic-strain pair were prepared in at least three replicates. (3) Antibiotic exposure. During the dose response assay, frozen cultures of the E. coli strains expressing YFP and mCherry were thawed and mixed at a 1:1 ratio, diluted 1:1000 in 30 mL MHB and incubated for 45 min at 37 °C and 160 rpm. During the single-dose assay, the frozen cultures of experimental strains (E. coli, K. pneumoniae, A. baumannii) were also thawed and diluted 1:1000 in 30 mL MHB and incubated at 37 °C to reach an OD of 0.25 and 160 rpm. Following this incubation phase, these bacterial cultures were then aliquoted into the 96-well deep-well antibiotic plates (15 μL culture; total volume of 250 μL) at an inoculum density of about 10^7 CFU.

[2] = system: E. coli; assay type: cell-based, Escherichia coli
Experimental: as §1, §2, §3, §4

[3] = system: P. aeruginosa ATCC BAA-3107 (SEN) and P. aeruginosa LESB58 (MDR); experiment: Frequency-of-resistance (FoR) assay, relative MIC of mutants; assay type: cell-based, Pseudomonas aeruginosa
Experimental: The susceptibility of antibiotics to resistance development was evaluated in two strains of each bacterial species: a multidrug-resistant strain and an antibiotic-sensitive strain of Escherichia coli, Klebsiella pneumoniae, Acinetobacter baumannii, and Pseudomonas aeruginosa. To explore first-step resistance, we previously used a standard protocol for spontaneous frequency-of-resistance analysis (FoR assay) at multiple concentrations of each antibiotic[10],[28],[31]–[33]. […] For all other combinations, approximately 10^10 bacterial cells were exposed to one of each antibiotic on agar plates for two days at concentrations where the given strain is susceptible. We examined resistance levels by contrasting the minimum inhibitory concentration (MICs) of the mutated strains to the original wild-type bacterial strain (i.e., relative MIC).
To estimate the frequency of spontaneous mutations that confer resistance in a microbial population, we conducted a frequency of resistance (FoR) assay following established protocols[10],[31]–[33]. […] Prior to plating, bacteria were grown overnight in MHB medium at 37 °C and 250 RPM, then centrifuged and washed in MHB. All experiments were performed in triplicate, and plates were incubated at 37 °C for 48 hours. Total colony-forming units (CFUs) were determined by plating appropriate dilutions onto antibiotic-free MHB agar. Resistance frequencies were calculated by dividing the number of resistant colonies by the initial viable cell count. From the plates with the highest antibiotic concentration, ten colonies were selected for MIC determination and whole-genome sequencing.
A robotic liquid handling system was used to automatically prepare a 11 to 16-step serial dilution in 384-well microtiter plates (Greiner). A final concentration of 5 × 10^5 bacterial cells per mL were inoculated into each well containing 60 µL MHB medium. Bacterial cultures were incubated at 37 °C with continuous shaking (Infors shaker, 900 rpm with 3 mm throw) for 18 hours (2 replicates from each). Cell growth was monitored by measuring the optical density (OD600 values, using Biotek Synergy microplate reader). MIC was defined as the antibiotic concentration of complete growth inhibition (i.e., OD600 < 0.05). Relative MIC was calculated as follows:1 relativeMIC=MICevolved/MICancestor […]
Supplementary Figure 3. Resistance levels following the frequency of resistance assay across bacterial strains. The level of resistance was measured as the fold change in relative MIC between evolved and ancestral strains. Data are grouped by bacterial strain (A. baumannii (AB), E. coli (EC), K. pneumoniae (KP), and P. aeruginosa (PA)) and categorized as either multidrug-resistant (MDR) or sensitive (SEN). Each data point represents a laboratory evolved line, and boxplots show the median, first and third quartiles, with whiskers indicating the 5th and 95th percentiles. […]
analysis was performed using two-sided Dunn’s post-hoc test with Benjamini-Hochberg correction for multiple comparisons (**/ * indicates p < 0.01/ 0.05). For detailed information on antibiotic and bacterial species, see Supplementary Table 1. For mode of action groups, refer to Table 1. Source data are provided as a Source Data file.

[4] = P. aeruginosa ATCC BAA 3107 (PA-SEN), evolved line 1
[5] = P. aeruginosa ATCC BAA 3107 (PA-SEN), evolved line 2
[6] = P. aeruginosa ATCC BAA 3107 (PA-SEN), evolved line 3
[7] = P. aeruginosa LESB 58 (PA-MDR), evolved line 1
[8] = P. aeruginosa LESB 58 (PA-MDR), evolved line 1, evolved vs ancestor
[9] = P. aeruginosa LESB 58 (PA-MDR), evolved line 2
[10] = P. aeruginosa LESB 58 (PA-MDR), evolved line 2, evolved vs ancestor
[11] = P. aeruginosa LESB 58 (PA-MDR), evolved line 3
[12] = P. aeruginosa LESB 58 (PA-MDR), evolved line 3, evolved vs ancestor
[13] = P. aeruginosa ATCC BAA 3107 (PA-SEN), evolved line 1, evolved vs ancestor
[14] = P. aeruginosa ATCC BAA 3107 (PA-SEN), evolved line 2, evolved vs ancestor
[15] = P. aeruginosa ATCC BAA 3107 (PA-SEN), evolved line 3, evolved vs ancestor
[16] = Escherichia coli, survival at 10xMIC for 4 hours, single replicates, (fig 9a source data)

## CN[C@@H]1[C@@H](O[C@H]2O[C@H](CO)[C@@H](N)[C@H](O)[C@H]2O)OC2C[C@@H](N)[C@@H](O[C@H]3[C@H](O)[C@@H](O)[C@H](N)C[C@@H]3N)OC2[C@@H]1O (stereo partly shown) [Apramycin]
[1]; listed as APR
  Survival rate (log10): -1.378 log10 and -1.536 log10 and -1.241 log10 and -1.504 log10 and -1.3851 log10

## Nc1nc(-n2cc(C(=O)O)c(=O)c3cc(F)c(N4CC(O)C4)c(Cl)c32)c(F)cc1F [Delafloxacin]
[1]; listed as DEL
  Survival rate (log10): -1.416 log10 and -1.661 log10 and -1.352 log10 and -1.5252 log10 and -1.635 log10
[2]; Escherichia coli, survival at 10xMIC for 4 hours, single replicates, (fig 9a source data), listed as DEL
  Survival rate (log10): -1.163 log10 and -1.03 log10 and -1.096 log10 and -1.128 log10 and -1.122 log10
[3]; [4]
  MIC of evolved line: 2 µg/mL
[3]; [5]
  MIC of evolved line: 2 µg/mL
[3]; [6]
  MIC of evolved line: 2 µg/mL
[3]; [7]
  MIC of evolved line: 8 µg/mL
[3]; [8]
  Relative MIC: 4
[3]; [9]
  MIC of evolved line: 8 µg/mL
[3]; [10]
  Relative MIC: 4
[3]; [11]
  MIC of evolved line: 4 µg/mL
[3]; [12]
  Relative MIC: 2

## C[C@H]1c2cccc(O)c2C(=O)C2=C(O)[C@]3(O)C(=O)C(C(N)=O)=C(O)[C@@H](N(C)C)[C@@H]3[C@@H](O)[C@@H]21 [Doxycycline]
[3]; [13]
  Relative MIC: 32
[3]; [14]
  Relative MIC: 32
[3]; [15]
  Relative MIC: 32

## O=c1ccc2ncc(=O)n3c2n1C[C@H]3CN1CCC(NCc2cc3c(cn2)OCCC3)CC1 [Gepotidacin]
[3]; [4]
  MIC of evolved line: 64 µg/mL
[3]; [13]
  Relative MIC: 16
[3]; [5]
  MIC of evolved line: 64 µg/mL
[3]; [14]
  Relative MIC: 16
[3]; [6]
  MIC of evolved line: 64 µg/mL
[3]; [15]
  Relative MIC: 16
[3]; [7]
  MIC of evolved line: 32 µg/mL
[3]; [8]
  Relative MIC: 8
[3]; [9]
  MIC of evolved line: 32 µg/mL
[3]; [10]
  Relative MIC: 8
[3]; [11]
  MIC of evolved line: 16 µg/mL
[3]; [12]
  Relative MIC: 4

## C[C@@H](O)[C@H]1C(=O)N2C(C(=O)O)=C(S[C@@H]3CN[C@H](C(=O)N(C)C)C3)[C@H](C)[C@H]12 [Meropenem]
[3]; [4]
  MIC of evolved line: 2 µg/mL
[3]; [5]
  MIC of evolved line: 2 µg/mL
[3]; [6]
  MIC of evolved line: 2 µg/mL
[3]; [7]
  MIC of evolved line: 32 µg/mL
[3]; [9]
  MIC of evolved line: 32 µg/mL
[3]; [11]
  MIC of evolved line: 32 µg/mL

## COc1c(N2C[C@@H]3CCCN[C@@H]3C2)c(F)cc2c(=O)c(C(=O)O)cn(C3CC3)c12 [Moxifloxacin]
[3]; [4]
  MIC of evolved line: 16 µg/mL
[3]; [5]
  MIC of evolved line: 32 µg/mL
[3]; [6]
  MIC of evolved line: 32 µg/mL

## CC[C@H](C)CCCCC(=O)N[C@@H](CCN)C(=O)N[C@H](C(=O)N[C@@H](CCN)C(=O)N[C@H]1CCNC(=O)[C@H]([C@@H](C)O)NC(=O)[C@H](CCN)NC(=O)[C@H](CCN)NC(=O)[C@H](CC(C)C)NC(=O)[C@@H](Cc2ccccc2)NC(=O)[C@H](CCN)NC1=O)[C@@H](C)O [Polymyxin B] (X2-[Dab]T[Dab][Dab][Dab][dF]L[Dab][Dab]T; lactam 4-C (inferred); N-terminus assumed)
[1]; listed as PMB
  Survival rate (log10): -3.38 log10 and -2.762 log10 and -3.033 log10 and -2.9785 log10 and -2.974 log10
[2]; Escherichia coli, survival at 10xMIC for 4 hours, single replicates, (fig 9a source data), listed as PMB
  Survival rate (log10): -4.007 log10 and -4.747 log10 and -3.481 log10

## CC(C)c1ccc(Cn2ccc3c4c(N)nc(NC5CC5)nc4ccc32)cc1 [SCH79797]
[1]; 10xMIC for 4 hours
  bacterial survival after toxic antibiotic exposure: eliminated the entire bacterial population
[1]
  Survival rate (log10): -6 log10
[2]; 10xMIC for 4 hours
  bacterial survival after toxic antibiotic exposure: eliminated the entire bacterial population
[2]; [16]
  Survival rate (log10): -6 log10

## C[C@@H](O)[C@H]1C(=O)N2C(C(=O)O)=C(S[C@H]3CC[S@@+]([O-])C3)S[C@H]12 [Sulopenem]
[1]; listed as SUO
  Survival rate (log10): -2.317 log10 and -2.432 log10 and -2.658 log10 and -2.635 log10
[2]; Escherichia coli, survival at 10xMIC for 4 hours, single replicates, (fig 9a source data), listed as SUO
  Survival rate (log10): -1.918 log10 and -1.5648 log10 and -1.786 log10 and -1.733 log10 and -1.844 log10

## POL7306
[1]; listed as POL
  Survival rate (log10): -3.645 log10 and -4.987 log10 and -2.756 log10 and -3.625 log10 and -3.539 log10
[2]
  Survival rate (log10): -4.747 log10
[2]; Escherichia coli, survival at 10xMIC for 4 hours, single replicates, (fig 9a source data), listed as POL
  Survival rate (log10): -4.446 log10 and -4.3509 log10

## Tridecaptin M152-P3
[1]; listed as TRD
  Survival rate (log10): -2.876 log10 and -2.59 log10 and -2.704 log10 and -2.72 log10 and -2.696 log10
[2]
  Survival rate (log10): -4.747 log10
[2]; [16]
  Survival rate (log10): -3.386 log10

## colistin
[1]; listed as COL
  Survival rate (log10): -3.481 log10 and -3.59 log10 and -3.495 log10 and -4.987 log10 and -3.369 log10
[2]; Escherichia coli, survival at 10xMIC for 4 hours, single replicates, (fig 9a source data), listed as COL
  Survival rate (log10): -4.747 log10 and -3.794 log10

## polymyxin-B
[3]; [4]
  MIC of evolved line: 1 µg/mL
[3]; [5]
  MIC of evolved line: 1 µg/mL
[3]; [6]
  MIC of evolved line: 1 µg/mL
[3]; [7]
  MIC of evolved line: 4 µg/mL
[3]; [9]
  MIC of evolved line: 4 µg/mL
[3]; [11]
  MIC of evolved line: 4 µg/mL
